# Counter-ions that a name gives are not always drawn.
# Target: T1, HCV polymerase (Hepatitis C virus genotype 1b, UniProt P26663)
# T1 construct: a region encoding NS5B (J Virol 1991 March, 65(3), 1105-13, 544 amino acids after deletion of 47 amino acids on the C-terminal); 6xHis (C); made in house; host or cells: Escherichia coli
# Experiment: biochemical
# Set-up: species or system HCV BK strain
# Conditions: not given
# Summary of the method: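 His-tagged NS5B (BK strain, 47-aa C-terminal deletion, E. coli-expressed) at 0.5 μg/ml copied 5 μg/ml run-off RNA bearing the HCV 3′ UTR with 2 μM UTP plus [3H]UTP, 50 μM ATP/GTP, in pH 7.5 Tris with 5 mM MgCl2, 25 °C, 90 min. TCA-precipitated RNA was counted and IC50 calculated.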
# T1 sequence (P26663 2420-2963): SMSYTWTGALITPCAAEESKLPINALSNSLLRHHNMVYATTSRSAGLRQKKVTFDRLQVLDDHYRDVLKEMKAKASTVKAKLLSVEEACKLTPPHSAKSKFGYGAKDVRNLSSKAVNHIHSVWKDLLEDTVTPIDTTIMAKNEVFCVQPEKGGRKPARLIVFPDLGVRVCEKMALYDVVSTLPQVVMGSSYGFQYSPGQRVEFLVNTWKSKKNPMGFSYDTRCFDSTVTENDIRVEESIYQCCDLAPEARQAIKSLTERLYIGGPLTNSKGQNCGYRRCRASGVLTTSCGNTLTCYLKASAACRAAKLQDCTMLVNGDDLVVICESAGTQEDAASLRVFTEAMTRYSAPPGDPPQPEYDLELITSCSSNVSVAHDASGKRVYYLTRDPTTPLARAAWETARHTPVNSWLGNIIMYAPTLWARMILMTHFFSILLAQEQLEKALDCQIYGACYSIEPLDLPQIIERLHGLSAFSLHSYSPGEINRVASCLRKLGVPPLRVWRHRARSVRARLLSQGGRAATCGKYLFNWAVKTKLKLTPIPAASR
row,Compound,IC50 [µM]
1,"CCCS(=O)(=O)NC(=O)c1ccc2c(C3CCCCC3)c3n(c2c1)CCN(CC(=O)N1CCN(CC)CC1)c1ccccc1-3 [Example 1-129, N-{13-cyclohexyl-5-[2-(4-ethylpiperazin-1-yl)-2-oxoethyl]-6,7-dihydro-5H-benzo[5,6][1,4]diazepino[7,1-a]indole-10-carbonyl}propane-1-sulfonamide dihydrochloride]",< 0.1
2,"CCN1CCC(CN2CCn3c(c(C4CCCCC4)c4ccc(C(=O)O)cc43)-c3ccccc32)CC1 [Example 1-130, 13-cyclohexyl-5-(1-ethylpiperidin-4-ylmethyl)-6,7-dihydro-5H-benzo[5,6][1,4]diazepino[7,1-a]indole-10-carboxylic acid]",< 0.1
3,"O=C(O)c1ccc2c(C3CCCCC3)c3n(c2c1)CCN(CC(=O)N1CCCCCCC1)c1ccccc1-3 [Example 1-131, 5-[2-(azocan-1-yl)-2-oxoethyl]-13-cyclohexyl-6,7-dihydro-5H-benzo[5,6][1,4]diazepino[7,1-a]indole-10-carboxylic acid]",< 0.1
4,"O=C(O)c1ccc2c(C3CCCCC3)c3n(c2c1)CCN(CC(=O)N1CCCCCCCC1)c1ccccc1-3 [Example 1-132, 5-[2-(azonan-1-yl)-2-oxoethyl]-13-cyclohexyl-6,7-dihydro-5H-benzo[5,6][1,4]diazepino[7,1-a]indole-10-carboxylic acid]",< 0.1
5,"O=C(O)c1ccc2c(C3CCCCC3)c3n(c2c1)CCN(Cc1ccncc1)c1ccccc1-3 [Example 1-134, 13-cyclohexyl-5-(pyridin-4-ylmethyl)-6,7-dihydro-5H-benzo[5,6][1,4]diazepino[7,1-a]indole-10-carboxylic acid dihydrochloride]",< 0.1
6,"O=C(O)c1ccc2c(C3CCCCC3)c3n(c2c1)CCN(Cc1cccnc1)c1ccccc1-3 [Example 1-135, 13-cyclohexyl-5-(pyridin-3-ylmethyl)-6,7-dihydro-5H-benzo[5,6][1,4]diazepino[7,1-a]indole-10-carboxylic acid dihydrochloride]",< 0.1
7,"O=C(O)c1ccc2c(C3CCCCC3)c3n(c2c1)CCN(CC(=O)N1CC=CCC1)c1ccccc1-3 [Example 1-136, 13-cyclohexyl-5-[2-(3,6-dihydro-2H-pyridin-1-yl)-2-oxoethyl]-6,7-dihydro-5H-benzo[5,6][1,4]diazepino[7,1-a]indole-10-carboxylic acid]",< 0.1
8,"CC1CCCCN1C(=O)CN1CCn2c(c(C3CCCCC3)c3ccc(C(=O)O)cc32)-c2ccccc21 (stereo not drawn) [Example 1-137, 13-cyclohexyl-5-[2-(2-methylpiperidin-1-yl)-2-oxoethyl]-6,7-dihydro-5H-benzo[5,6][1,4]diazepino[7,1-a]indole-10-carboxylic acid]",< 0.1
9,"O=C(O)c1ccc2c(C3CCCCC3)c3n(c2c1)CCN(CC(=O)N1CCc2ccccc2C1)c1ccccc1-3 [Example 1-138, 13-cyclohexyl-5-[2-(3,4-dihydro-1H-isoquinolin-2-yl)-2-oxoethyl]-6,7-dihydro-5H-benzo[5,6][1,4]diazepino[7,1-a]indole-10-carboxylic acid monohydrochloride]",< 0.1
10,"O=C(O)c1ccc2c(C3CCCCC3)c3n(c2c1)CCN(CC(=O)N1CCCC2CCCCC21)c1ccccc1-3 (stereo not drawn) [Example 1-139, 13-cyclohexyl-5-[2-(octahydroquinolin-1-yl)-2-oxoethyl]-6,7-dihydro-5H-benzo[5,6][1,4]diazepino[7,1-a]indole-10-carboxylic acid monohydrochloride]",< 0.1
11,"O=C(O)c1ccc2c(C3CCCCC3)c3n(c2c1)CCN(CC(=O)N1Cc2ccccc2C1)c1ccccc1-3 [Example 1-140, 13-cyclohexyl-5-[2-(1,3-dihydroisoindol-2-yl)-2-oxoethyl]-6,7-dihydro-5H-benzo[5,6][1,4]diazepino[7,1-a]indole-10-carboxylic acid monohydrochloride]",< 0.1
12,"O=C(O)c1ccc2c(C3CCCCC3)c3n(c2c1)CCN(CC(=O)N1CCC2CCCCC2C1)c1ccccc1-3 (stereo not drawn) [Example 1-141, 13-cyclohexyl-5-[2-(octahydroisoquinolin-2-yl)-2-oxoethyl]-6,7-dihydro-5H-benzo[5,6][1,4]diazepino[7,1-a]indole-10-carboxylic acid monohydrochloride]",< 0.1
13,"O=C(O)c1ccc2c(C3CCCCC3)c3n(c2c1)CCN(CCN1CCc2ccccc2C1)c1ccccc1-3 [Example 1-142, 13-cyclohexyl-5-[2-(3,4-dihydro-1H-isoquinolin-2-yl)ethyl]-6,7-dihydro-5H-benzo[5,6][1,4]diazepino[7,1-a]indole-10-carboxylic acid dihydrochloride]",< 0.1
14,"CC1CCCN(CCN2CCn3c(c(C4CCCCC4)c4ccc(C(=O)O)cc43)-c3ccccc32)C1 (stereo not drawn) [Example 1-143, 13-cyclohexyl-5-[2-(3-methylpiperidin-1-yl)ethyl]-6,7-dihydro-5H-benzo[5,6][1,4]diazepino[7,1-a]indole-10-carboxylic acid dihydrochloride]",< 0.1
15,"O=C(O)c1ccc2c(C3CCCCC3)c3n(c2c1)CCN(CCN1CCCC2CCCCC21)c1ccccc1-3 (stereo not drawn) [Example 1-144, 13-cyclohexyl-5-[2-(octahydroquinolin-1-yl)ethyl]-6,7-dihydro-5H-benzo[5,6][1,4]diazepino[7,1-a]indole-10-carboxylic acid dihydrochloride]",< 0.1
16,"O=C(O)c1ccc2c(C3CCCCC3)c3n(c2c1)CCN(CCN1Cc2ccccc2C1)c1ccccc1-3 [Example 1-145, 13-cyclohexyl-5-[2-(1,3-dihydroisoindol-2-yl)ethyl]-6,7-dihydro-5H-benzo[5,6][1,4]diazepino[7,1-a]indole-10-carboxylic acid dihydrochloride]",< 0.1
17,"O=C(O)c1ccc2c(C3CCCCC3)c3n(c2c1)CCN(CCN1CCC2CCCCC2C1)c1ccccc1-3 (stereo not drawn) [Example 1-146, 13-cyclohexyl-5-[2-(octahydroisoquinolin-2-yl)ethyl]-6,7-dihydro-5H-benzo[5,6][1,4]diazepino[7,1-a]indole-10-carboxylic acid dihydrochloride]",< 0.1
18,"CN(C)CCCN1CCn2c(c(C3CCCCC3)c3ccc(C(=O)O)cc32)-c2ccccc21 [Example 1-148, 13-cyclohexyl-5-(3-dimethylaminopropyl)-6,7-dihydro-5H-benzo[5,6][1,4]diazepino[7,1-a]indole-10-carboxylic acid dihydrochloride]",< 0.1
19,"O=C(O)c1ccc2c(C3CCCCC3)c3n(c2c1)CCN(CCN1CCCCC1)c1c(F)cccc1-3 [Example 1-149, 13-cyclohexyl-4-fluoro-5-[2-(piperidin-1-yl)ethyl]-6,7-dihydro-5H-benzo[5,6][1,4]diazepino[7,1-a]indole-10-carboxylic acid dihydrochloride]",< 0.1
20,"CC(C)C1CCN(CCN2CCn3c(c(C4CCCCC4)c4ccc(C(=O)O)cc43)-c3ccccc32)CC1 [Example 1-150, 13-cyclohexyl-5-[2-(4-isopropylpiperidin-1-yl)ethyl]-6,7-dihydro-5H-benzo[5,6][1,4]diazepino[7,1-a]indole-10-carboxylic acid dihydrochloride]",< 0.1

# Same assay, conditions: read-out: HCV polymerase inhibitory activity IC50; 25° C., 90 min; [5,6-3H]UTP incorporation into RNA
row,Compound,IC50 [µM]
1,"CCN1CCC(CN2CCn3c(c(C4CCCCC4)c4ccc(C(=O)O)cc43)-c3ccccc32)CC1 [Example 1-133, 13-cyclohexyl-5-(1-ethylpiperidin-4-ylmethyl)-6,7-dihydro-5H-benzo[5,6][1,4]diazepino[7,1-a]indole-10-carboxylic acid dihydrochloride]",< 0.1
